From ChEMBL document CHEMBL1201862, “PubChem BioAssay data set” (2004)
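Where inhibition never reached the appropriate level, the endpoint shown equals the highest concentration tested. Otherwise, values were interpolated linearly from a five-concentration, 48-hour dose response in 96-well plates. Here, GI50 denotes the concentration required for 50% inhibition of growth.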 Active and inactive are the calls of the source. No stated cut-off is given here; in the data, active = GI50 up to about 1.1 µM and inactive = higher.

How the values were obtained:
Test in all cases: NCI anticancer screen, dose series, 48 h
786-0 = test system: 786-0
A498 = test system: A498
A549 = test system: A549
ACHN = test system: ACHN
BT-549 = test system: BT-549
CAKI-1 = test system: CAKI-1
COLO 205 = test system: COLO 205
DU-145 = test system: DU-145
EKVX = test system: EKVX
HCC 2998 = test system: HCC 2998
HCT-116 = test system: HCT-116
HCT-15 = test system: HCT-15
HL-60 = test system: HL-60
HOP-62 = test system: HOP-62
HOP-92 = test system: HOP-92
HT-29 = test system: HT-29
Hs-578T = test system: Hs-578T
IGROV-1 = test system: IGROV-1
K562 = test system: K562
KM12 = test system: KM12
LOX IMVI = test system: LOX IMVI
M14 = test system: M14
MCF7 = test system: MCF7
MDA-MB-231 = test system: MDA-MB-231
MDA-MB-435 = test system: MDA-MB-435
MDA-N = test system: MDA-N
MOLT-4 = test system: MOLT-4
Malme-3M = test system: Malme-3M
NCI-H226 = test system: NCI-H226
NCI-H23 = test system: NCI-H23
NCI-H460 = test system: NCI-H460
NCI-H522 = test system: NCI-H522
NCI/ADR-RES = test system: NCI/ADR-RES
OVCAR-3 = test system: OVCAR-3
OVCAR-4 = test system: OVCAR-4
OVCAR-5 = test system: OVCAR-5
OVCAR-8 = test system: OVCAR-8
PC-3 = test system: PC-3
RXF 393 = test system: RXF 393
SF-268 = test system: SF-268
SF-295 = test system: SF-295
SK-MEL-28 = test system: SK-MEL-28
SK-MEL-2 = test system: SK-MEL-2
SK-MEL-5 = test system: SK-MEL-5
SK-OV-3 = test system: SK-OV-3
SN12C = test system: SN12C
SNB-19 = test system: SNB-19
SR = test system: SR
SW-620 = test system: SW-620
T47D = test system: T47D
TK-10 = test system: TK-10
U-251 = test system: U-251
UACC-257 = test system: UACC-257
UACC-62 = test system: UACC-62
UO-31 = test system: UO-31
RPMI-8226 = test system: RPMI-8226
SF-539 = test system: SF-539
SNB-75 = test system: SNB-75

COc1ccc(/N=N/C(=N/NC(=O)c2ccc(C)cc2)c2ccc(N(CCC#N)CCC#N)cc2OC)cc1
GI50 (786-0): > 100 µM (inactive)
GI50 (A498): > 100 µM (inactive)
GI50 (A549): > 100 µM (inactive)
GI50 (ACHN): > 100 µM (inactive)
GI50 (BT-549): > 100 µM (inactive)
GI50 (CAKI-1): > 100 µM (inactive)
GI50 (COLO 205): > 100 µM (inactive)
GI50 (DU-145): > 100 µM (inactive)
GI50 (EKVX): > 100 µM (inactive)
GI50 (HCC 2998): > 100 µM (inactive)
GI50 (HCT-116): > 100 µM (inactive)
GI50 (HCT-15): > 100 µM
GI50 (HL-60): < 10 nM (active)
GI50 (HOP-62): > 100 µM (inactive)
GI50 (HOP-92): > 100 µM (inactive)
GI50 (HT-29): > 100 µM (inactive)
GI50 (Hs-578T): > 100 µM (inactive)
GI50 (IGROV-1): > 100 µM (inactive)
GI50 (K562): > 100 µM (inactive)
GI50 (KM12): > 100 µM (inactive)
GI50 (LOX IMVI): > 100 µM (inactive)
GI50 (M14): > 100 µM (inactive)
GI50 (MCF7): > 100 µM (inactive)
GI50 (MDA-MB-231): > 100 µM (inactive)
GI50 (MDA-MB-435): > 100 µM (inactive)
GI50 (MDA-N): > 100 µM (inactive)
GI50 (MOLT-4): > 100 µM (inactive)
GI50 (Malme-3M): > 100 µM (inactive)
GI50 (NCI-H226): > 100 µM (inactive)
GI50 (NCI-H23): > 100 µM (inactive)
GI50 (NCI-H460): > 100 µM (inactive)
GI50 (NCI-H522): > 100 µM (inactive)
GI50 (NCI/ADR-RES): > 100 µM (inactive)
GI50 (OVCAR-3): > 100 µM (inactive)
GI50 (OVCAR-4): > 100 µM (inactive)
GI50 (OVCAR-5): > 100 µM (inactive)
GI50 (OVCAR-8): > 100 µM (inactive)
GI50 (PC-3): > 100 µM (inactive)
GI50 (RXF 393): > 100 µM (inactive)
GI50 (SF-268): > 100 µM (inactive)
GI50 (SF-295): > 100 µM (inactive)
GI50 (SK-MEL-28): > 100 µM (inactive)
GI50 (SK-MEL-2): > 100 µM (inactive)
GI50 (SK-MEL-5): > 100 µM (inactive)
GI50 (SK-OV-3): > 100 µM (inactive)
GI50 (SN12C): > 100 µM (inactive)
GI50 (SNB-19): > 100 µM (inactive)
GI50 (SR): 36.6 µM (inactive)
GI50 (SW-620): > 100 µM (inactive)
GI50 (T47D): > 100 µM (inactive)
GI50 (TK-10): > 100 µM (inactive)
GI50 (U-251): > 100 µM (inactive)
GI50 (UACC-257): > 100 µM (inactive)
GI50 (UACC-62): > 100 µM (inactive)
GI50 (UO-31): > 100 µM (inactive)

CCC(C(=O)c1cccs1)C(O)(C(F)(F)F)C(F)(F)F (configuration not stated)
GI50 (786-0): > 100 µM (inactive)
GI50 (A498): > 100 µM (inactive)
GI50 (A549): > 100 µM (inactive)
GI50 (ACHN): > 100 µM (inactive)
GI50 (BT-549): > 100 µM (inactive)
GI50 (CAKI-1): > 100 µM (inactive)
GI50 (COLO 205): > 100 µM (inactive)
GI50 (DU-145): > 100 µM (inactive)
GI50 (EKVX): > 100 µM (inactive)
GI50 (HCT-116): > 100 µM (inactive)
GI50 (HCT-15): > 100 µM
GI50 (HL-60): 3390 nM (inactive)
GI50 (HOP-62): > 100 µM (inactive)
GI50 (HOP-92): > 100 µM (inactive)
GI50 (HT-29): > 100 µM (inactive)
GI50 (Hs-578T): > 100 µM (inactive)
GI50 (IGROV-1): > 100 µM (inactive)
GI50 (K562): > 100 µM (inactive)
GI50 (KM12): > 100 µM (inactive)
GI50 (LOX IMVI): > 100 µM (inactive)
GI50 (M14): > 100 µM (inactive)
GI50 (MCF7): > 100 µM (inactive)
GI50 (MDA-MB-231): > 100 µM (inactive)
GI50 (MDA-MB-435): > 100 µM (inactive)
GI50 (MDA-N): > 100 µM (inactive)
GI50 (MOLT-4): > 100 µM (inactive)
GI50 (Malme-3M): > 100 µM (inactive)
GI50 (NCI-H226): > 100 µM (inactive)
GI50 (NCI-H23): > 100 µM (inactive)
GI50 (NCI-H460): > 100 µM (inactive)
GI50 (NCI-H522): > 100 µM (inactive)
GI50 (NCI/ADR-RES): > 100 µM (inactive)
GI50 (OVCAR-3): > 100 µM (inactive)
GI50 (OVCAR-4): > 100 µM (inactive)
GI50 (OVCAR-5): > 100 µM (inactive)
GI50 (OVCAR-8): > 100 µM (inactive)
GI50 (PC-3): > 100 µM (inactive)
GI50 (RPMI-8226): > 100 µM (inactive)
GI50 (RXF 393): > 100 µM (inactive)
GI50 (SF-268): > 100 µM (inactive)
GI50 (SF-295): > 100 µM (inactive)
GI50 (SF-539): > 100 µM (inactive)
GI50 (SK-MEL-28): > 100 µM (inactive)
GI50 (SK-MEL-2): > 100 µM (inactive)
GI50 (SK-MEL-5): > 100 µM (inactive)
GI50 (SK-OV-3): > 100 µM (inactive)
GI50 (SN12C): > 100 µM (inactive)
GI50 (SNB-19): > 100 µM (inactive)
GI50 (SNB-75): > 100 µM (inactive)
GI50 (SR): > 100 µM (inactive)
GI50 (SW-620): > 100 µM (inactive)
GI50 (T47D): > 100 µM (inactive)
GI50 (TK-10): > 100 µM (inactive)
GI50 (U-251): > 100 µM (inactive)
GI50 (UACC-257): > 100 µM (inactive)
GI50 (UACC-62): > 100 µM (inactive)
GI50 (UO-31): > 100 µM (inactive)
